The subject of series [1] is mouse transplanted liver tumor. The experiment in a line: Anti-tumor effect on mouse transplanted liver tumor (I.M.). The format is in vivo. Conditions: CTX 18.0 mg/kg/d x10. The source says:
(§1) A solvent blank (i.e., the specifically designed solution illustrated in Table 1), a saline blank as a […] control are used as controls for the in vivo tests. As per the Drug Administration Law of the People's Republic of China, and the rules governing observation of the pharmaco-dynamic study of the therapy action, the tumors were surgically removed from tumor infected mice and were homogenized to form suspensions followed by filtration to make a suspension solution at 1×10^6 -10^7 cell/ml. The suspension was injected (i.e., 0.2 ml per mice) into the test mice for tumor growth until the transplanted tumor cells were established and grew up to a size of 0.5×0.5 cm. […] At the end of the in vivo tests, several parameters such as mouse body weight, average tumor weight and percentage of tumor inhibition, are determined.
(§2) % inhibition rate=(average tumor weight of the solvent group or
(§3) tumor rate of the solvent group

The next series deals with mouse S-180 sarcoma. The experiment in a line: Anti-tumor effect on mouse transplanted sarcoma S-180 (I.M.). Conditions: CTX 18.0 mg/kg/d x10. The series is classed as in vivo.
Text: as §1, §2, §3

A further series concerns skin fungal diseases. Conditions: 7-8% solution by weight with propylene glycol; cited from earlier work.
Another series is described as follows: Solubility in water. The series is classed as physicochemical. The note with it: water or a water-based solution.
Where [2] appears, read: P <0.01 vs saline control, three experiments.

Values joined by “and” are separate entries in the source; they are usually repeats but may differ in a detail not shown here. Equal entries are not always repeated.

This is an account of results in US5891454A, “Anti-cancer drug and special tumor necrotizing agent” (Wu; Alexander, priority 1997, dated 1999).

As for `O=P1(N(CCCl)CCCl)NCCCO1` (centres unmarked) [CTX], the Anti-tumor inhibit rate in series [1] (setting [2]) is 40.7% and 46.2% and 60.0%; in the series on mouse S-180 sarcoma (setting [2]), 51.6% and 53.3% and 52.5%. Besides, the Body weight final in series [1] (outset 19.9, 20.3, 20.9 in three experiments, in g (unit assumed)) was 27.9 and 28.5; in the series with mouse S-180 sarcoma (outset 22.4, 22.6, 19.3 in three experiments, in g (unit assumed)), 30.9 and 26.4. Moreover, the “Ave. weight of tumor (x + SD)” value in series [1] (three experiments) was 1.81 ± 0.22 g and 1.57 ± 0.63 g and 0.94 ± 0.41 g. Further, the “Ave. weight of tumor (x ± SD)” value with mouse S-180 sarcoma (three experiments) was 1.37 ± 0.47 g and 1.29 ± 0.43 g and 1.14 ± 0.28 g.
As to `Cc1ccc(S(N)(=O)=O)cc1` [para-toluene sulfonamide], the topical anti-fungal activity result in the series with skin fungal diseases was “highly effective”. In addition, the dissolution in water entry in “Solubility in water” is reported as “not readily dissolved in water or in a water-based solution”.
